# Reference: paper PMC10349806 (Nature Communications, 2023)
# Where “and” joins values, the source holds several entries; their conditions need not be identical. Equal entries are not always repeated.
# Molecular target: T1, PfCRT variant D310A (Plasmodium falciparum, UniProt Q9N623, A220S/D310A/I356T/K76T/M74I/N326S/N75E/Q271E/R371I)
# T1 sequence (Q9N623 1-424 M74I/N75E/K76T/A220S/Q271E/D310A/N326S/I356T/R371I): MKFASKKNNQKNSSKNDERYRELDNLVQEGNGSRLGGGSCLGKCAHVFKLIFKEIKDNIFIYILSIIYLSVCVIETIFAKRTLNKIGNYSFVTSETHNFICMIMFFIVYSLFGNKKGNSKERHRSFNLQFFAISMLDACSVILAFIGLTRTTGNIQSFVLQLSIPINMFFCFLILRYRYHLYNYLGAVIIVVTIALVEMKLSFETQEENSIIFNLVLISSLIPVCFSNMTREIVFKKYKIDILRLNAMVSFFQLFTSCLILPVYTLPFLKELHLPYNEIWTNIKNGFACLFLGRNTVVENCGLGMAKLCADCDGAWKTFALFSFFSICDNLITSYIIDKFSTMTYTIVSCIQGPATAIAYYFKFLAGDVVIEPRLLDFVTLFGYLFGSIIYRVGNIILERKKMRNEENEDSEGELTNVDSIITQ
# Assay: CQ uptake assay, oocytes expressing D310A
# Format: cell-based
# Method: Site-directed mutagenesis of PfCRT^Dd2 was performed as described using the megaprimer method with overlap extension[21],[54]. The primer pairs used are listed in Supplementary Table 6. Please note that a codon-optimized and oocyte-adapted version of PfCRT^Dd2 was used[22] (Supplementary Fig. 16). The resulting DNA fragment was cloned into the SP64T expression vector and verified by sequencing.
# Oocytes were obtained as described previously. Briefly, adult (>2 years old) female X. laevis frogs (NASCO) were anesthetized in a cooled solution of ethyl 3-amino benzoate methanesulfonate (0.1%, w/v), followed by a surgical removal of parts of the ovary. The ovary lobes were carefully dissected and small pieces of oocytes were incubated in Ca^2+-free ND96 buffer (96 mM NaCl, 2 mM KCl, 1 mM MgCl2 buffered with 5 mM HEPES/NaOH, pH 7.5) supplemented with collagenase D (0.1%, w/v; Roche), BSA (0.5%, w/v), and 9 mm Na2HPO4 at 18 °C for 14-16 h while gentle shaking. After incubation, the oocytes were carefully washed several times with ND96 buffer (96 mM NaCl, 2 mM KCl, 1.8 mM CaCl2, 1 mM MgCl2 buffered with 5 mM HEPES/NaOH, pH 7.5) supplemented with 100 mg l^−1 gentamycin). Defolliculated and healthy-looking stage V-VI oocytes were manually selected for RNA microinjection. The RNA was generated as following: The codon-optimized sequences of PfCRT variants were cloned into the pSP64T expression vector. After vector linearization using the restriction endonucleases BamHI or SalI (New England Biolabs), transcription was performed using the in vitro SP6 mMessage mMachine Kit (Ambion)[34]. The obtained RNA was kept at −80 °C and diluted with nuclease-free water to a concentration of 0.6 μg μl^−1. Precision-bore glass capillary tubes (3.5-inch glass capillaries; Drummond Scientific Co.) were pulled on a vertical puller (P-87 Flaming/Brown micropipette puller, Sutter Instrument Co.), graduated, and placed on a microinjector (Nanoject II Auto-Nanoliter Injector, Drummond Scientific Co.). 50 nl of nuclease-free water alone (control oocytes) or 50 nl of 0.6 μg μl^−1 RNA were injected under stereomicroscopic control. Injected oocytes were incubated for 46–72 h at 18 °C with twice-daily buffer changes before usage in experiments.
# Drug uptake assays were performed as described previously[21],[22],[24],[34]. […] The direction of radio-labeled drug transport is here from the mostly acidic extracellular solution (pH 4.5 or 6.0, as indicated) into the oocyte cytosol (pH ∼ 7.2), which corresponds to the efflux of drug from the acidic digestive vacuole (pH 5.2) into the parasite cytoplasm (pH 7.2). The topology of PfCRT in the oolemma is such that both the N- and C-terminus face the extracellular milieu[3],[22]. In the parasite, the N- and C-terminus face the lumen of the digestive vacuole. CQ uptake kinetics were performed by incubating oocytes in ND96 buffer adjusted to a pH of 4.5, 5.0, 5.5, or 6.0 and supplemented with 50 nM [^3H]CQ and one of 7 different CQ concentrations (10 µM, 50 µM, 100 µM, 200 µM, 300 µM, 400 µM, 500 µM CQ). The reaction was stopped at the 60 min time point, which is in the linear uptake range[22],[34] (Supplementary Fig. 17). For determination of the amount of drug uptake for each oocyte, the reaction medium was removed and the oocytes were washed three times with 2 ml of ice-cold ND96 buffer. Each oocyte was individually transferred to a scintillation vial containing 5% sodium dodecyl sulfate (200 μl) for lysis. The radioactivity of each sample was measured using a liquid scintillation analyzer Tri-Carb 4910 TR (PerkinElmer). Oocytes that were injected with water instead of RNA were analyzed in parallel, representing the uptake of a drug by diffusion and/or endogenous permeation pathways. The resulting value represents the “background“ level of drug accumulation in oocytes (in-depth discussion in[22]). […]
# [1] = D310A, 50 µM CQ, 1 h, mean ± SEM
smiles,measurement,setting,value
"CCN(CC)CCCC(C)Nc1ccnc2cc(Cl)ccc12 (stereo not drawn) [CQ, chloroquine]",Activity at pH 4.5,[1],0.96 ± 0.15 pmol h-1 oocyte-1
same,Activity at pH 6.0,[1],1.25 pmol h-1 oocyte-1 and 1.25 ± 0.18 pmol h-1 oocyte-1
same,R-value,"D310A, CQ transport at pH 4.5 / pH 6.0",0.77 and 0.77 ± 0.07
same,D310A transport activity pH 4.5,"pH 4.5, single replicates, Fig 1d left",0.65 pmol oocyte-1 h-1 and 1.30 pmol oocyte-1 h-1 and 0.92 pmol oocyte-1 h-1
same,D310A R-value,"pH 4.5 vs pH 6.0, Fig 1d left",0.79 and 0.92 and 0.61
same,D310A transport activity pH 6.0,"pH 6.0, single replicates, Fig 1d left",0.82 pmol oocyte-1 h-1 and 1.42 pmol oocyte-1 h-1 and 1.51 pmol oocyte-1 h-1
